What was measured:
[1] = test system: Erysiphe graminis f. sp. tritici; experiment: Test A: wheat powdery mildew, preventive spray on wheat seedlings, disease rating; format: in vivo, Erysiphe graminis f. sp. tritici (on wheat seedlings); details: 200 ppm test suspension sprayed to run-off (equivalent to 500 g/ha) on wheat seedlings; 100 = 100% disease control, 0 = no control; # = significant activity
Summary of the method: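 Compounds at 200 ppm (acetone 3%, 250 ppm Trem 014 in water; equivalent to 500 g/ha) sprayed to run-off on wheat seedlings, inoculated with spore dust the following day. Plants held at 20° C. for 7 days, then rated 0–100% disease control relative to untreated controls.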

Botrytis cinerea = experiment: Test E: gray mold, preventive spray on cucumber seedlings, disease rating; format: in vivo, Botrytis cinerea (on cucumber seedlings); details: 200 ppm test suspension sprayed to run-off (equivalent to 500 g/ha) on cucumber seedlings; 100 = 100% disease control, 0 = no control; # = significant activity
Summary of the method: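 Cucumber seedlings sprayed to run-off with 200 ppm suspension (equivalent to 500 g/ha), inoculated next day with B. cinerea spores. Kept 48 h saturated at 20 °C, then 5 days in growth chamber at 20 °C; disease control rated 0–100 relative to controls.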

Puccinia recondita = experiment: Test B: wheat leaf rust, preventive spray on wheat seedlings, disease rating; format: in vivo, Puccinia recondita (on wheat seedlings); details: 200 ppm test suspension sprayed to run-off (equivalent to 500 g/ha) on wheat seedlings; 100 = 100% disease control, 0 = no control; # = significant activity
Summary of the method: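 Wheat seedlings were sprayed to run-off with 200 ppm suspensions (≈500 g/ha; 3% acetone, 250 ppm Trem 014) and inoculated with Puccinia recondita spores the next day. Plants were held 24 h saturated at 20 °C, then 6 days at 20 °C. Disease control was rated 0-100 relative to untreated controls.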

Pyricularia oryzae = format: in vivo, Pyricularia oryzae (on rice seedlings); details: 200 ppm test suspension sprayed to run-off (equivalent to 500 g/ha) on rice seedlings; 100 = 100% disease control, 0 = no control; # = significant activity
Phytophthora infestans = format: in vivo, Phytophthora infestans (on tomato seedlings); details: 200 ppm test suspension sprayed to run-off (equivalent to 500 g/ha) on tomato seedlings; 100 = 100% disease control, 0 = no control; # = significant activity

SMILES | Test A disease control rating (wheat powdery mildew) [1] | Test E disease control rating (gray mold) (Botrytis cinerea) | Test B disease control rating (wheat leaf rust) (Puccinia recondita) | Test C disease control rating (rice blast) (Pyricularia oryzae) | Test D disease control rating (potato and tomato late blight) (Phytophthora infestans)
CC(COc1ccc(Cl)cc1C#N)NC(=O)C1(C)CC(C)(Cl)C1 (centres unmarked) [compound 41] | 0 (a rating of 0 indicates no disease control (relative to the controls)) | 19% | 0 (a rating of 0 indicates no disease control (relative to the controls)) | 0 (a rating of 0 indicates no disease control (relative to the controls)) | 85# %
CC(COc1ccc(Br)cc1C#N)NC(=O)C1(C)CC(C)(Cl)C1 (centres unmarked) [compound 38] | 0 (a rating of 0 indicates no disease control (relative to the controls)) | 8% | 66# % | 0 (a rating of 0 indicates no disease control (relative to the controls)) | 23%
CC(NC(=O)C1CC(C)(Cl)C1)C(Oc1cc(F)ccc1F)c1ccccc1 (centres unmarked) [compound 32] | 59% | 0 (a rating of 0 indicates no disease control (relative to the controls)) | 0 (a rating of 0 indicates no disease control (relative to the controls)) | 52% | 0 (a rating of 0 indicates no disease control (relative to the controls))
CC(COc1cc(F)ccc1C#N)NC(=O)C1(C)CC(C)(Cl)C1 (centres unmarked) [compound 43] | 0 (a rating of 0 indicates no disease control (relative to the controls)) | 19% | 0 (a rating of 0 indicates no disease control (relative to the controls)) | 0 (a rating of 0 indicates no disease control (relative to the controls)) | 20%
CC(NC(=O)C1(C)CC(C)(Cl)C1)c1ccc(Cl)cc1Cl (centres unmarked) [compound 71] | 61% | 0 (a rating of 0 indicates no disease control (relative to the controls)) | 0 (a rating of 0 indicates no disease control (relative to the controls)) | 100# (a rating of 100 indicates 100% disease control) | 100# (a rating of 100 indicates 100% disease control)
CC(NC(=O)C1(C(F)(F)F)CC(C)(Cl)C1)c1ccc(Cl)cc1Cl (centres unmarked) [compound 8] | 0 (a rating of 0 indicates no disease control (relative to the controls)) | 0 (a rating of 0 indicates no disease control (relative to the controls)) | 0 (a rating of 0 indicates no disease control (relative to the controls)) | 100# (a rating of 100 indicates 100% disease control) | 24%
CC(NC(=O)C1(C(F)(F)F)CC(C)(Cl)C1)c1ccc(Cl)cc1Cl (centres unmarked) [compound 9] | 0 (a rating of 0 indicates no disease control (relative to the controls)) | 0 (a rating of 0 indicates no disease control (relative to the controls)) | 0 (a rating of 0 indicates no disease control (relative to the controls)) | 100# (a rating of 100 indicates 100% disease control) | 0 (a rating of 0 indicates no disease control (relative to the controls))
CC(NC(=O)C1CC(C)(Cl)C1)C(Oc1cc(F)ccc1F)c1ccccc1 (centres unmarked) [compound 31] | 0 (a rating of 0 indicates no disease control (relative to the controls)) | 0 (a rating of 0 indicates no disease control (relative to the controls)) | 0 (a rating of 0 indicates no disease control (relative to the controls)) | 90# % | 0 (a rating of 0 indicates no disease control (relative to the controls))
CC(NC(=O)C1(C)CC(Cl)(CCl)C1)c1ccc2ccccc2c1 (centres unmarked) [compound 64] | 0 (a rating of 0 indicates no disease control (relative to the controls)) | 0 (a rating of 0 indicates no disease control (relative to the controls)) | 0 (a rating of 0 indicates no disease control (relative to the controls)) | 53% | 91# %
COc1cc(Br)ccc1C(C)NC(=O)C1(C)CC(C)(Cl)C1 (centres unmarked) [compound 60] | 0 (a rating of 0 indicates no disease control (relative to the controls)) | 0 (a rating of 0 indicates no disease control (relative to the controls)) | 0 (a rating of 0 indicates no disease control (relative to the controls)) | 100# (a rating of 100 indicates 100% disease control) | 23%
CC(NC(=O)C1(C)CC(C)(Cl)C1)c1ccc(Cl)cc1Cl (centres unmarked) [compound 20] | 59% | 0 (a rating of 0 indicates no disease control (relative to the controls)) | 0 (a rating of 0 indicates no disease control (relative to the controls)) | 100# (a rating of 100 indicates 100% disease control) | 0 (a rating of 0 indicates no disease control (relative to the controls))
CC(COc1cc(F)ccc1Cl)NC(=O)C1(C)CC(C)(Cl)C1 (centres unmarked) [compound 49] | 98# % | 0 (a rating of 0 indicates no disease control (relative to the controls)) | 0 (a rating of 0 indicates no disease control (relative to the controls)) | 100# (a rating of 100 indicates 100% disease control) | 0 (a rating of 0 indicates no disease control (relative to the controls))
CC(COc1cc(F)ccc1F)NC(=O)C1(C)CC(C)(Br)C1 (centres unmarked) [compound 57] | 90# % | 0 (a rating of 0 indicates no disease control (relative to the controls)) | 0 (a rating of 0 indicates no disease control (relative to the controls)) | 86# % | 0 (a rating of 0 indicates no disease control (relative to the controls))
CC(NC(=O)C1(C)CC(C)(Cl)C1)c1cccc2ccccc12 (centres unmarked) [compound 21] | 0 (a rating of 0 indicates no disease control (relative to the controls)) | 0 (a rating of 0 indicates no disease control (relative to the controls)) | 0 (a rating of 0 indicates no disease control (relative to the controls)) | 0 (a rating of 0 indicates no disease control (relative to the controls)) | 0 (a rating of 0 indicates no disease control (relative to the controls))
CC(NC(=O)C1CC(C)(Cl)C1)C(Oc1cc(F)ccc1C#N)c1ccccc1 (centres unmarked) [compound 34] | 59% | 0 (a rating of 0 indicates no disease control (relative to the controls)) | 0 (a rating of 0 indicates no disease control (relative to the controls)) | 52% | 45%
CC(NC(=O)C1CC(C)(Cl)C1)c1ccc(Br)cc1 (centres unmarked) [compound 11] | 57% | 0 (a rating of 0 indicates no disease control (relative to the controls)) | 0 (a rating of 0 indicates no disease control (relative to the controls)) | 53% | 60%

Reference: US6504058B1 (priority 1997, dated 2003)
